Results on 41 molecules are retold here after patent US12581252B2, “Substituted pyrrolo[3,4-b]pyridines as PI3K-α inhibitors” (Relay Therapeutics, Inc., priority 2020, dated 2026).

In the experiment the target is H1047R PIK3CA enzyme (Homo sapiens, UniProt P42336, H1047R). Briefly: ADP-Glo Biochemical PIK3CA Kinase Assay.
H1047R PIK3CA enzyme, sequence (P42336 whole entry H1047R): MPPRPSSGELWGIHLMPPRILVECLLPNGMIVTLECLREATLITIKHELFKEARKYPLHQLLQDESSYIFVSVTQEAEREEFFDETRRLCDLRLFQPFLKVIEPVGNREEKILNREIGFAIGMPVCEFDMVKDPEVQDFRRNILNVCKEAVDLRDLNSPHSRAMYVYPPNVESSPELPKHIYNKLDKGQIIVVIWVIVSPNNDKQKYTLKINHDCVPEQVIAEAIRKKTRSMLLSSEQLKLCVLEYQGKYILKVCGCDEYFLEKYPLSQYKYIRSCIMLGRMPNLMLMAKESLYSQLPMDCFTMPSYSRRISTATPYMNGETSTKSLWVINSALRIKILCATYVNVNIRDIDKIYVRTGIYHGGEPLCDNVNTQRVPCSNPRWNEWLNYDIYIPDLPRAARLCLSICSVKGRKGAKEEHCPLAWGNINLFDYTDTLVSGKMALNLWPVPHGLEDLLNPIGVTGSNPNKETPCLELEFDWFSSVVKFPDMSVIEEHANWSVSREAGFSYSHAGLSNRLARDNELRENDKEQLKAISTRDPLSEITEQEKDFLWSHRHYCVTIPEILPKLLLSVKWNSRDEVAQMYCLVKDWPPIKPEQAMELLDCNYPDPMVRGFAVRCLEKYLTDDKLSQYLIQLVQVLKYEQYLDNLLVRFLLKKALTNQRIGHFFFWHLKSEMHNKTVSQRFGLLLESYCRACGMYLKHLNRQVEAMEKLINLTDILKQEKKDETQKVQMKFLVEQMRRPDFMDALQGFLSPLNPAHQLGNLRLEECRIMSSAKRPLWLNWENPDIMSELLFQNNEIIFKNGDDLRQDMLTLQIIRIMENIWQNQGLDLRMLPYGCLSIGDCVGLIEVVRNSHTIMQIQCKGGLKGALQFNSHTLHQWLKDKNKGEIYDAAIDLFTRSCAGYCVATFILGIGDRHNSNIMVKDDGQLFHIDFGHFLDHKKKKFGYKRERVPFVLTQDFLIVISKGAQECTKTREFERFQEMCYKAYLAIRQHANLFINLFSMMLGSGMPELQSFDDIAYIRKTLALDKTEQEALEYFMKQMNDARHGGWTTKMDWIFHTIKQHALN
H1047R PIK3CA enzyme, sequence (P27986 whole entry partner): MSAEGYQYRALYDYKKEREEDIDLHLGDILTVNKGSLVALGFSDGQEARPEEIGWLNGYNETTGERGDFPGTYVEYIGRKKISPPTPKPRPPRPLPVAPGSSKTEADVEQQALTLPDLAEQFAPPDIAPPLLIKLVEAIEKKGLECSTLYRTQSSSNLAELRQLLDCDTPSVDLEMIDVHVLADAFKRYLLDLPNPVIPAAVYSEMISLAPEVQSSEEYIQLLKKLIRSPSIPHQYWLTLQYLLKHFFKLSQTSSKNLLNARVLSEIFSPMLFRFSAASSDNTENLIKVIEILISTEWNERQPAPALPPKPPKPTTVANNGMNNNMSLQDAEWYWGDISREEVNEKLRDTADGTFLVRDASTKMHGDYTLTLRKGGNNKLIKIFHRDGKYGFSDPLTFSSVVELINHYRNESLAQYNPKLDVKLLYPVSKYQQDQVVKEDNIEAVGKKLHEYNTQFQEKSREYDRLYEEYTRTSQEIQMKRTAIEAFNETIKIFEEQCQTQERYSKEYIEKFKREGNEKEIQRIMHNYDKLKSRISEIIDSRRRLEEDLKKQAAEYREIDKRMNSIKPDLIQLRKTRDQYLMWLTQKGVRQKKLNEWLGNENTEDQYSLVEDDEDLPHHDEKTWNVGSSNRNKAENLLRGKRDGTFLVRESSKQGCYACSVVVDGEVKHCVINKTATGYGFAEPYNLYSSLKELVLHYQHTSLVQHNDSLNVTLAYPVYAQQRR
`N#Cc1nn(C(F)F)cc1-c1cc(NC(=O)c2cc(F)cc(C(F)(F)F)c2)c2c(c1)C(=O)N[C@@H]2c1cc(F)ccc1Cl` [Compound I-1889] yielded an IC50 of 1000 to 10000 nM.
With `O=C1NC(c2cc(F)ccc2Cl)c2c(Nc3nncc4ccccc34)cc(Br)cc21` (centres unmarked) [Compound I-760], the IC50 was 10000 to 100000 nM.
The same measure for `O=C(Nc1cc(-c2ccc3ncnn3c2)cc2c1[C@@H](c1cc(F)ccc1Cl)NC2=O)c1cc(F)c(F)c(Cl)c1` (stereo in doubt) [Compound I-1174]: 1000 to 10000 nM; for `O=C1NC(c2cc(F)ccc2Cl)c2c(NC(=O)C3(O)CCCC3)cc(-c3ccc4ncnn4c3)cc21` (centres unmarked) [Compound I-1813]: 10000 to 100000 nM.
The same measure for `O=C(Nc1cc(OCC2(O)COC2)cc2c1C(c1cc(F)ccc1Cl)NC2=O)c1cc(F)cc(C(F)(F)F)c1` (centres unmarked) [Compound I-1338]: 100 to 500 nM.
Next, `O=C(Nc1cc(N2CCS(=O)(=O)CC2)cc2c1C(c1cc(F)ccc1Cl)NC2=O)c1cc(F)cc(C(F)(F)F)c1` (centres unmarked) [Compound I-1248]: no more than 100 nM; `O=C(Nc1cc(NC(=O)c2cc(F)cc(C(F)(F)F)c2)c2c(c1)C(=O)NC2c1cc(F)ccc1Cl)c1cccnc1` (centres unmarked) [Compound I-1356]: no more than 100 nM.
`O=C(Nc1cc(Br)cc2c1C(c1cc(F)ccc1Cl)NC2=O)c1cccc(OC(F)(F)F)c1` (centres unmarked) [Compound I-514]: the IC50 is 500 to 1000 nM.
`O=C(Nc1cc(Br)cc2c1C(c1cc(F)ccc1Cl)NC2=O)c1cc(F)cc(COC(F)(F)F)c1` (centres unmarked) [Compound I-1241] displayed an IC50 of 1000 to 10000 nM.
The same measure for `Cc1ncc(-c2cc(NC(=O)c3cc(F)cc(Cl)c3)c3c(n2)C(=O)NC3c2cc(F)ccc2Cl)s1` (centres unmarked) [Compound I-457]: no more than 100 nM; for `N#CCc1cc(NC(=O)N2C[C@@H](O)c3cc(F)ccc32)c2c(c1)C(=O)N[C@@H]2c1cc(F)ccc1Cl` (single isomer, unassigned) [Compound I-2538]: no more than 100 nM.
Molecule `NS(=O)(=O)c1cc(-c2ccc3ncnn3c2)cc2c1[C@@H](c1cc(F)ccc1Cl)NC2=O` [Compound I-2100] returned an IC50 of 10000 to 100000 nM.
With `CS(=O)(Cc1cc(NC(=O)c2cc(F)cc(C(F)(F)F)c2)c2c(c1)C(=O)NC2c1cc(F)ccc1Cl)=Nc1ccccc1` (centres unmarked) [Compound I-1435], the IC50 is no more than 100 nM.
In the case of `O=C1N[C@H](c2cc(F)ccc2Cl)c2c(NC(=O)N3C[C@H](O)c4cc(F)c(F)cc43)cccc21` (single isomer, unassigned) [Compound I-2294], the IC50 was 10000 to 100000 nM.
Next, `O=C1N[C@@H](c2cc(F)ccc2Cl)c2c(NC(=O)N3C[C@@H](O)c4cc(F)ccc43)cc(-c3ccc(=O)n(C(F)F)c3)cc21` (single isomer, unassigned) [Compound I-2451]: 1000 to 10000 nM; `NC(=O)Cc1cc(NC(=O)c2cc(F)cc(C(F)(F)F)c2)c2c(c1)C(=O)NC2c1cc(F)ccc1Cl` (centres unmarked) [Compound I-578]: no more than 100 nM; `O=C(Nc1cc(-c2cnn3ncnc3c2)cc2c1[C@@H](c1cc(F)ccc1Cl)NC2=O)c1cc(F)cc(C(F)(F)F)c1` [Compound I-1871]: 100 to 500 nM.
The same measure for `O=C1NC[C@H](c2cc(NC(=O)c3cc(F)cc(C(F)(F)F)c3)c3c(c2)C(=O)N[C@@H]3c2cc(F)ccc2Cl)O1` (single isomer, unassigned) [Compound I-1558]: 100 to 500 nM; for `Nc1nc2ccc(-c3cc(NC(=O)c4cc(F)cc(C(F)(F)F)c4)c4c(c3)C(=O)N[C@@H]4c3cc(F)ccc3Cl)cn2n1` [Compound I-1444]: no more than 100 nM.
The same measure for `O=C(Nc1cc(-c2ccn3ncnc3c2)cc2c1[C@H](c1cc(F)ccc1Cl)NC2=O)c1cc(F)cc(C(F)(F)F)c1` (stereo in doubt) [Compound I-1597]: no more than 100 nM; for `O=C1NC(c2cc(F)ccc2Cl)c2c(NC(=O)C3CC(C(F)(F)F)CCN3)cc(Br)cc21` (centres unmarked) [Compound I-1689]: 10000 to 100000 nM.
In turn, `O=C(Nc1cccc2c1C(C1CCC(O)CC1)NC2=O)c1cc(F)cc(C(F)(F)F)c1` (centres unmarked) [Compound I-1835] had an IC50 of 10000 to 100000 nM.
As for `O=C(Nc1ccnc2c1C(c1ccccc1Cl)NC2=O)c1cc(F)cc(Cl)c1` (centres unmarked) [Compound I-171], the IC50 was in the range of 1000 to 10000 nM.
`CC(C)(O)COc1ncc(-c2cc(NC(=O)c3cc(F)cc(C(F)(F)F)c3)c3c(c2)C(=O)NC3c2cc(F)ccc2Cl)cn1` (centres unmarked) [Compound I-1529] registered an IC50 of no more than 100 nM.
`O=C(Nc1cc(-c2ccn3nc(Cl)nc3c2)cc2c1[C@H](c1cc(F)ccc1Cl)NC2=O)c1cc(F)cc(C(F)(F)F)c1` [Compound I-1697] returned an IC50 of no more than 100 nM.
Next, `O=C(Nc1cc(Br)cc2c1C(c1cc(F)ccc1Cl)NC2=O)c1ccccc1` (centres unmarked) [Compound I-470]: 10000 to 100000 nM; `O=C1NC(c2cc(F)ccc2Cl)c2c(NCc3ccccc3)cc(Br)cc21` (centres unmarked) [Compound I-1658]: 10000 to 100000 nM; `CCn1cc(-c2cc(NC(=O)c3cc(F)cc(C(F)(F)F)c3)c3c(c2)C(=O)N[C@@H]3c2cc(F)ccc2Cl)ccc1=O` [Compound I-703]: 10000 to 100000 nM.
Molecule `Cc1ccccc1C1NC(=O)c2cc([C@@H](C)NC(=O)OC(C)(C)C)cc(NC(=O)c3csc4ccccc34)c21` (mixture of isomers) [Compound I-89] had an IC50 of 100 to 500 nM.
In the case of `O=C(Nc1ccnc2c1C(c1ccccc1Cl)NC2=O)c1cc(F)cc(C(F)(F)F)c1` (centres unmarked) [Compound I-208], the IC50 was 500 to 1000 nM.
`O=C(Nc1cc(Nc2cn[nH]c2)cc2c1[C@@H](c1cc(F)ccc1Cl)NC2=O)c1cc(F)cc(C(F)(F)F)c1` [Compound I-1259] displayed an IC50 of 1000 to 10000 nM.
Next, `COc1cc(C(=O)Nc2cc(Br)cc3c2C(c2cc(F)ccc2Cl)NC3=O)cc(Cl)c1F` (centres unmarked) [Compound I-991]: 100 to 500 nM.
Next, `O=C(Nc1cc(CC2CCO2)cc2c1C(c1cc(F)ccc1Cl)NC2=O)c1cc(F)cc(C(F)(F)F)c1` (centres unmarked) [Compound I-1302]: no more than 100 nM; `Cn1cc(-c2cc(NC(=O)c3cc(F)cc(C(F)(F)F)c3)c3c(n2)C(=O)N[C@H]3c2cc(F)ccc2Cl)ccc1=O` [Compound I-588]: no more than 100 nM.
For the molecule `O=C(Nc1cc(-c2ccn3ncnc3c2F)cc2c1[C@@H](c1cc(F)ccc1Cl)NC2=O)c1cc(F)cc(C(F)(F)F)c1` [Compound I-1764], the half-maximal inhibitory concentration (IC50) was 1000 to 10000 nM.
As for `O=C1N[C@@H](c2cc(F)ccc2Cl)c2c(NC(=O)[C@H]3C[C@H](O)C[C@@H](C(F)(F)F)C3)cccc21` (single isomer, unassigned) [Compound I-2177], the IC50 was in the range of 1000 to 10000 nM.
Next, `CC1CN(C(=O)Nc2cc(Br)cc3c2C(c2cc(F)ccc2Cl)NC3=O)CCN1C` (racemic) [Compound I-686]: 10000 to 100000 nM; `O=C(Nc1cc(-c2ccc3c(c2)OCO3)cc2c1C(c1cc(F)ccc1Cl)NC2=O)c1cc(F)cc(C(F)(F)F)c1` (centres unmarked) [Compound I-741]: no more than 100 nM; `O=C1N[C@@H](c2cc(F)ccc2Cl)c2c(NC(=O)N3C[C@](O)(C(F)(F)F)c4cc(F)ccc43)cc(N3CCCC3=O)cc21` (single isomer, unassigned) [Compound I-2668]: 10000 to 100000 nM.
Next, `O=C(Nc1cc(Br)cc2c1C(c1cc(F)ccc1Cl)NC2=O)c1ccc(F)c(C(F)(F)F)c1` (centres unmarked) [Compound I-566]: 500 to 1000 nM; `CNS(=O)(=O)Cc1cc(NC(=O)c2cc(F)cc(C(F)(F)F)c2)c2c(c1)C(=O)N[C@@H]2c1cc(F)ccc1Cl` [Compound I-1533]: 100 to 500 nM.
